Literature values as cited in patent publication US8449906B2, “Effervescent compositions comprising phosphonates and methods related thereto” (EffRx Pharmaceuticals, S.A., priority 2002, dated 2013).

- pKa: about 3.9
Compound: COc1ccc2[nH]c([S+]([O-])Cc3ncc(C)c(OC)c3C)nc2c1 (stereo not shown) [omeprazole]
